Where only a bound is given, the exact number is not on record here.

The record followed here is patent publication US20240277631A1, “SMALL MOLECULE DRUG (ELP-004) TO PREVENT BONE LESIONS CAUSED BY MULTIPLE MYELOMA” (West Virginia University Board of Governors on behalf of …, priority 2023, published 2024).

For one series, the system named is Murine BMSMCs. Kind of series: cytosolic Ca2+ levels and NFAT nuclear translocation during osteoclastogenesis. The class given is cell-based. As to conditions: 100 nM.
Another series has as its system rats. Kind of series: 1x escalating oral toxicity in rats (IITRI). Format: in vivo, rat.
For the next series, the system named is CYP enzymes. Kind of series: induction of CYP enzymes. Format: in vitro ADME.
A short description of series [1]: pharmacokinetics in mice, i.v., p.o., s.c. The class given is in vivo, female C57B16 mice. As for the experimental part:
ELP-004 was reconstituted in 20% hydroxypropyl-beta-cyclodextrin (HPbCD) and administered to female C57B16 mice (3/timepoint/route of administration) in the fed state. Following i.v. (2 mg/kg) […] from whole blood at 5, 15, and 30 min and at 1, 2, 4, 7, and 24 h. ELP-004 concentration was measured by LC-MS/MS. The data was fit to a two-compartment model and slopes for the a and B elimination were determined.
Depicted in table 1 is pharmacokinetic data of ELP-004 administered via i.v, p.o., and s.c. ELP-004 was reconstituted in 20% hydroxypropyl-beta-cyclodextrin (HPbCD) and administered to female C57B16 mice (3/timepoint/route of administration) in the fed state. Following i.v. (2 mg/kg), s.c. (2 mg/kg), or p.o. (10 mg/kg) administration, plasma was isolated from whole blood at 5, 15, and 30 min and at 1, 2, 4, 7, and 24 h. Plasma from p.o. was not isolated at 5 min. ELP-004 concentration was measured by LC-MS/MS (see below). The limit of quantification was 10 ng/ml and samples below that were not used in the analyses. PK parameters were calculated using Phoenix WinNonlin (Certara, NJ, USA).

The next series has as its system osteoclasts. Kind of series: development of osteoclasts (osteoclastogenesis). Format: cell-based.

For the molecule `CCC(=O)N(C)c1ccc(Cl)c(Cl)c1` [ELP-004, N-(3,4-dichlorophenyl)-N-methylpropanamide], the figures for the NFAT nuclear translocation result in the series on Murine BMSMCs (LTB4-induced changes), with Murine BMSMCs (RANKL-induced osteoclastogenesis) and in the series with Murine BMSMCs (TNFα-induced changes) were “significantly inhibited”, “had no effect” and “significantly inhibited”, respectively. Moreover, the “cytosolic Ca2+ levels” value with Murine BMSMCs (LTB4-induced changes) and in the series on Murine BMSMCs (TNFα-induced changes) was “significantly inhibited” each time. In addition, the “oral LD50” value with rats was more than 2.5 g/kg body weight. Besides, in the series with CYP enzymes, the “effect on induction of CYP enzymes” value is “no deleterious effect”. Further, in series [1] (administered orally), the “time until essentially eliminated” value was not above 4 h. Moreover, the C0 in series [1] (female, C57B16, mouse, plasma, iv, i.v. 2 mg/kg) is 1220 ng/mL. Besides, in the series on osteoclasts (general statement), the development of osteoclasts result is recorded as “inhibits the development of osteoclasts in a dose dependent manner”. Also, the osteoclast maturation entry with osteoclasts (summary statement) is given as “suppressed”.
